In brackets after ≈: the same amount, converted by molar mass.
Experiment: Solubility in water
Format: physicochemical

## CC(C)Cn1cnc2c(N)nc3ccccc3c21 [imiquimod, 1-(2-methylpropyl)-1H-imidazo[4,5-c]quinolin-4-amine]
  solubility: 0.79 µg/mL (≈ 3.29 µM)

Source: US7906525B2, “Reduction of imiquimod impurities at four months using refined oleic acid” (priority 2004, dated 2011)
